Two molecules from paper PMC10672942 (2023) can be followed below.

Test [1] deals with pApU (RNA, polymer) A/U. The experiment in a line: UV melting at 260 nm. To be noted: Na+ (sodium cacodylate 50 mM); pH 7.0; r = 0.3 [peptide]/[phosphate], polynucleotide 2.0 × 10^-5 M; free Tm 48.9 °C; per base.
For test [2], the system named is pApU (RNA, polymer) A/U. The experiment in a line: fluorescence titration. Particulars: Na+ (sodium cacodylate 50 mM); pH 7.0, 25 °C; Scatchard fit, fixed n = 0.3; per base.
In test [3] the test system is p(dAdT)2 (DNA, polymer) AT. The experiment in a line: fluorescence titration. Particulars: Na+ (sodium cacodylate 50 mM); pH 7.0, 25 °C; Scatchard fit, fixed n = 0.3; per base.
For test [4], the system named is p(dGdC)2 (DNA, polymer) GC. The experiment in a line: fluorescence titration. Particulars: Na+ (sodium cacodylate 50 mM); pH 7.0, 25 °C; Scatchard fit, fixed n = 0.3; per base.
Test [5] concerns ds-dA10-dT10 (oligoAT10) (DNA, duplex) AAAAAAAAAA/TTTTTTTTTT
The experiment in a line: HPLC after irradiation at 300 nm. Particulars: ammonium acetate 100 mM; covalent; photoalkylation via quinone methide, 15 and 60 min, pH 7.0.

As for `CN(C)Cc1cc(C[C@H](NC(=O)[C@@H](N)CCCCNC(=O)c2ccc3ccc4cccc5ccc2c3c45)C(=O)OCc2ccccc2)ccc1O`, the ΔTm (usually the shift of the melting midpoint relative to a reference) in the test with pApU (RNA, polymer) A/U [1] was 1.4 ± 0.2 °C. Also, the logKa came to 6.9 in the test with pApU (RNA, polymer) A/U [2]; 6.8 in test [3]; 6.6 in test [4]. Besides, the binding entry in test [5] is recorded as “yes”.

Consider `CN(C)Cc1cc(C[C@H](NC(=O)[C@@H](N)CNC(=O)c2ccc3ccc4cccc5ccc2c3c45)C(=O)OCc2ccccc2)ccc1O`, for which, in the test with pApU (RNA, polymer) A/U [1], the ΔTm was 1.9 ± 0.6 °C. In addition, the logKa with pApU (RNA, polymer) A/U [2] was 6.8; in test [3], > 7; in test [4] it was 6.7.
